Assay results from US6579720B1, “Method for activity profiling compound mixtures” (BDC Pharma LLC, priority 1999, dated 2003).

Experiments:
[1] = test system: antibody of the Benzodiazepines ELISA (specific for compounds belonging to the Benzodiazepine family); test: Benzodiazepine ELISA (Neogen competitive ELISA test kit); format: binding; settings: experiment C, 7-drug mixture; ELISA fingerprint compared with chromatographic fingerprints
Text: (§1) ELISA test kits were purchased from Neogen Corporation, Lexington, Ky. […] Structural features that typically produce a positive response for each of these assays are described on FIG. 11.
(§2) ELISA is a method of analysis that relies on specific interactions between antibodies and antigens to detect a variety of substances. The assay (Neogen) operates on the basis of competition between the horseradish peroxidase (HRP) enzyme conjugate and the analyte in the sample for specific binding sites on the precoated antibody microplate. The test kits used for the experiment are 96-well plates precoated with a specific antibody. As described in FIG. 12, the sample or standard solution is first added to the precoated antibody microplate. Next, the diluted enzyme conjugate is added and the mixture is shaken and then incubated at room temperature for one hour. During incubation, competition for binding sites on the microplate is taking place. The plate is then washed removing all unbound material. The bound enzyme conjugate is detected by the addition of a tetramethylbenzidine (TMB) based substrate which generates an optimal color after 30 minutes. […] The extent of color development is inversely proportional to the amount of analyte in the sample or standard. […] Typically, the sensitivity of the selected ELISA assays ranges from ˜0.1 to 20-30 ng/mL depending on the substrate. […]

[2] = IAM chromatography, normalized capacity factor on esterIAM.PS C10/C3; format: physicochemical; settings: 15% acetonitrile + 85% 0.03 M NH4OAc buffer pH 7.4, 1 mL/min
Text: (§3) The preferred, if not only surfaces capable of measuring membrane binding constants so far are from a group of immobilized artificial membranes (IAMs). IAMs consist of a monolayer of phospholipids covalently immobilized to a silica surface. Five types of IAM surfaces are typically used: phosphatidylcholine (PC), phosphatidylethanolamine (PE), phosphatidylserine (PS), sphingomyelin (SM), and cholesterol (CL). These IAM silica surfaces are used as the stationary phase in high performance liquid chromatography (HPLC). The IAM columns can be run in parallel with one single MS detection system (multi-column LC/MS) or successively using a one-column LC/MS instrument.
(§4) Dimensions of the columns: 3.0×0.46 cm.
(§5) Wavelength of the UV detector: 220 nm.
(§6) Mobile phase composition: 15% of acetonitrile+85% of 0.03 M NH4OAc buffer (pH 7.4).
(§7) All five compounds were chromatographed on ^esterIAM.PC^C10/C3, ^esterIAM.PE^C10/C3, ^esterIAM.PS^C10/C3, IAM.SM^C10/C3 using the experimental conditions described above. A representative set of normalized capacity factor values (αk′) of these drugs are presented in Table 6 [It should be noted that these values are very much dependent on packing material quality and density, as well as mobile phase composition (particularly the pH). Thus these values are not absolute and may vary from column to column within the same column type].

[3] = IAM chromatography, normalized capacity factor on esterIAM.PC C10/C3; format: physicochemical; settings: 15% acetonitrile + 85% 0.03 M NH4OAc buffer pH 7.4, 1 mL/min
Text: as §3, §4, §5, §6, §7

[4] = IAM chromatography, normalized capacity factor on esterIAM.PE C10/C3; format: physicochemical; settings: 15% acetonitrile + 85% 0.03 M NH4OAc buffer pH 7.4, 1 mL/min
Text: as §3, §4, §5, §6, §7

[5] = IAM chromatography, normalized capacity factor on IAM.SM C10/C3; format: physicochemical; settings: 15% acetonitrile + 85% 0.03 M NH4OAc buffer pH 7.4, 1 mL/min
Text: as §3, §4, §5, §6, §7

[6] = test system: tricyclic antibody; test: Tricyclic ELISA (Neogen competitive ELISA test kit); format: binding; settings: experiment C, 7-drug mixture; ELISA fingerprint compared with chromatographic fingerprints
Text: as §1, §2

[7] = test system: antibody of the Haloperidol ELISA (specific for Haloperidol); test: Haloperidol ELISA (Neogen competitive ELISA test kit); format: binding
Text: as §1, §2

Row | Compound | Benzodiazepine ELISA activity assigned to compound [1] | IAM.PS (αk′) [2] | IAM.PC (αk′) [3] | IAM.PE (αk′) [4] | IAM.SM (αk′) [5] | Tricyclic ELISA activity assigned to compound [6] | Haloperidol ELISA activity assigned to compound ([7]; experiment B, 70-drug mixture, activity profile compared with chromatographic fingerprints) | Haloperidol ELISA activity assigned to compound ([7]; experiment C, 7-drug mixture, ELISA fingerprint compared with chromatographic fingerprints)
1 | CN1C(=O)CN=C(c2ccccc2)c2cc(Cl)ccc21 [Diazepam] | detected by the Benzodiazepine ELISA assay |  |  |  |  |  |  | 
2 | Cc1cn([C@H]2C[C@H](N=[N+]=[N-])[C@@H](CO)O2)c(=O)[nH]c1=O [AZT] |  | 0.36 | 0.36 | 0.76 | 0.26 |  |  | 
3 | CN1CCCN=C1COC(=O)C(O)(c1ccccc1)C1CCCCC1 (stereo not drawn) [Oxyphencyclimine] |  |  |  |  |  | detected |  | 
4 | Olazoline |  | 4.72 | 0.52 | 1.19 | 0.49 |  |  | 
5 | CCN(CC)C(=O)c1cccnc1 [Nikethamide] |  | 0.61 | 0.33 | 1.55 | 0.30 |  |  | 
6 | O=C(CCCN1CCC(O)(c2ccc(Cl)cc2)CC1)c1ccc(F)cc1 [Haloperidol] |  |  |  |  |  |  | activity should be assigned to Haloperidol | only matches the chromatographic fingerprint of Haloperidol
7 | COc1cc(CCN)cc(OC)c1OC [Mescaline] |  | 11.39 | 0.62 | 1.95 | 0.49 |  |  | 
8 | CCn1cc(C(=O)O)c(=O)c2cc(F)c(N3CCNCC3)cc21 [Norfloxacin] |  | 8.09 | 0.64 | 1.31 | 2.09 |  |  | 
